# How the values were obtained:
# weiblichen NMRI-Mäusen = assay: Oral toxicity (LD50) in mice, 14 days observation; type: in vivo; conditions: N=5/dose
# Source text: Die Toxizitätsuntersuchungen werden an weiblichen NMRI-Mäusen (Körpergewicht 22 - 26 g) durchgeführt. Die Tiere (5 Tiere pro Dosis) erhalten Futter und Wasser ad libitum. Verschiedene Dosen der Substanzen werden oral verabreicht. Die Beobachtungsdauer beträgt 14 Tage. Die LD50, d.h. die Dosis bei der 50% der Tiere sterben, wird aus der Dosiswirkungskurve graphisch ermittelt.
# [1] = tested on: genetisch hypertonen Ratten; assay: Antihypertensive effect: systolic blood pressure (tail cuff) in conscious genetically hypertensive rats, oral dosing once daily on four consecutive days; type: in vivo, Ratten (Stamm SHR/N/Ibm/Bm); conditions: for Th.I. Fusarsäure = 1: normalised to Th.W. Fusarsäure = 1; for Th.W. (Therapeutische Wirksamkeit): mean of quotient over the doses of Table I
# Method: Zur Bestimmung der äntihypertensiven Wirkung werden die unten aufgeführten Verbindungen in den angegebenen Dosen an vier aufeinander folgenden Tagen an je 6 Ratten (Stamm SHR/N/Ibm/Bm, ♂, 250-350 g) mit genetisch bedingtem Hochdruck (RR > 180 mmHg) täglich einmal mittels Schlundsonde verabfolgt. Die Messung des Blutdrucks erfolgt jeweils 2, 6 und gegebenenfalls 24 Stunden nach Substanzgabe.
# Die Blutdruckmessung wird in einer Wärmekammer bei 36°C vorgenommen, um eine bessere Durchblutung der Schwanzarterie zu erreichen. Hierzu werden die Tiere in perforierte Lochblechkäfige verbracht und 20 - 40 Min. nach Beginn der Aufwärmung gemessen. Zur Messung des systolischen arteriellen Drucks wird eine ringförmige Manschette mit aufblasbarer Gummimembran zur Unterbindung der Durchblutung und ein ringförmiger Piezökristallaufnehmer zur Erfassung der Pulswellen auf den Schwanz aufgeschoben. Nach erfolgter Unterbindung des Blutstroms in der Schwanzarterie wird der Manschettendruck kontinuierlich reduziert. […] Pulssignale und Druckverlauf werden zur Auswertung graphisch aufgezeichnet.
# Zur Gewöhnung an den Meßvorgang werden die Tiere vor Substanzprüfung 14 Tage traniniert. In der zweiten Trainingswoche werden Blutdruck-Vorwerte erhoben. Tiergruppen, die Substanz erhälten, werden gegen eine Kontrollgruppe geprüft.
smiles,measurement,setting,value
"COc1ccccc1N1CCN(CCCNC(=O)c2ccc(-c3ccccc3)cn2)CC1 [lfd. Nr. 5, 5-Phenylpyridin-2-carbonsäure-(3-[4-(2-methoxyphenyl)-piperazinyl-1]-propyl)-amid]",LD50 p.o.,weiblichen NMRI-Mäusen,≫ 1000 mg/kg
same,BP (%-Änderungen),"[1]; 6,4 mg/kg p.o., day 1, 2h",-19%
same,BP (%-Änderungen),"[1]; 6,4 mg/kg p.o., day 1, 6h",-14%
same,BP (%-Änderungen),"[1]; 6,4 mg/kg p.o., day 1, 24h",-20%
same,BP (%-Änderungen),"[1]; 6,4 mg/kg p.o., day 2, 6h",-12%
same,BP (%-Änderungen),"[1]; 6,4 mg/kg p.o., day 3, 6h",-11%
same,BP (%-Änderungen),"[1]; 6,4 mg/kg p.o., day 3, 24h",-5%
same,BP (%-Änderungen),"[1]; 6,4 mg/kg p.o., day 4, 2h",-16%
same,BP (%-Änderungen),"[1]; 6,4 mg/kg p.o., day 4, 6h",-24%
same,BP (%-Änderungen),"[1]; 25,6 mg/kg p.o., day 1, 2h",-26%
same,BP (%-Änderungen),"[1]; 25,6 mg/kg p.o., day 1, 6h",-20%
same,BP (%-Änderungen),"[1]; 25,6 mg/kg p.o., day 1, 24h",-14%
same,BP (%-Änderungen),"[1]; 25,6 mg/kg p.o., day 2, 6h",-12%
same,BP (%-Änderungen),"[1]; 25,6 mg/kg p.o., day 3, 6h",-12%
same,BP (%-Änderungen),"[1]; 25,6 mg/kg p.o., day 3, 24h",-3%
same,BP (%-Änderungen),"[1]; 25,6 mg/kg p.o., day 4, 2h",-12%
same,BP (%-Änderungen),"[1]; 25,6 mg/kg p.o., day 4, 6h",-22%
same,Th.I. Fusarsäure = 1,"[1]; day 1 (2h, 6h and 24h Th.W. averaged)","70,6"
same,Th.W. (Therapeutische Wirksamkeit),"[1]; day 1, 2h","-89,8 %-Änderung BP / µmol/kg x 100"
same,Th.W. (Therapeutische Wirksamkeit),"[1]; day 1, 6h","-66,9 %-Änderung BP / µmol/kg x 100"
same,Th.W. (Therapeutische Wirksamkeit),"[1]; day 1, 24h","-82,7 %-Änderung BP / µmol/kg x 100"
same,Th.W. (Therapeutische Wirksamkeit),"[1]; day 2, 6h","-52,8 %-Änderung BP / µmol/kg x 100"
same,Th.I. Fusarsäure = 1,[1]; day 3 (6h and 24h Th.W. averaged),"21,1"
same,Th.W. (Therapeutische Wirksamkeit),"[1]; day 3, 6h","-49,3 %-Änderung BP / µmol/kg x 100"
same,Th.W. (Therapeutische Wirksamkeit),"[1]; day 3, 24h","-20,3 %-Änderung BP / µmol/kg x 100"
same,Th.I. Fusarsäure = 1,[1]; day 4 (2h and 6h Th.W. averaged),"14,7"
same,Th.W. (Therapeutische Wirksamkeit),"[1]; day 4, 2h","-66,9 %-Änderung BP / µmol/kg x 100"
same,Th.W. (Therapeutische Wirksamkeit),"[1]; day 4, 6h","-103,9 %-Änderung BP / µmol/kg x 100"

# — patent publication EP0123700A1, “Substituted picolinic acids, processes for their preparation, their use, and pharmaceutical preparations containing them” (Byk Gulden Lomberg Chemische Fabrik GmbH, priority 1983, dated 1984)
